In PubChem BioAssay AID1963446 (Molecular Pharmacology Branch, DTP, NCI, 2024):

Test system: 993429-296-R-J1-PDC complex spheroid growth, percent test/control
Test: Anticancer human tumor 993429-296-R-J1-PDC patient-derived uterine sarcoma cell line growth inhibition [Asc]
Details: for IC50: curve of first compound; for viability, T/C: stronger effect = lower value
Method in brief: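 Concentration series start at each agent's clinical Cmax, or at 10 microM when none is established, and drop in half-log steps; agents are applied alone or together to complex spheroids built with HUVEC and hMSC.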
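Also: spheroids exposed to compounds for seven days.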

Q: How did the IC50 (second compound 0.03 µM) turn out when `Cc1nc(N2CCC3(CC2)COC(C)C3N)c(CO)nc1Sc1ccnc(N)c1Cl` (stereo not given) + CCN1C(C(=O)NC23CCC(C(=O)O)(CC2)CC3)C(c2cccc(Cl)c2F)C2(C(=O)Nc3cc(Cl)ccc32)C12CCCCC2 was run?
A: 211 nM

Q: And the IC50 (second compound 0.0949 µM)?
A: 159 nM

Q: What about the IC50 (second compound 0.3 µM) of the same molecule?
A: 176 nM

Q: What about the IC50 (second compound 0.949 µM) of the same molecule?
A: 144 nM

Q: What about the IC50 (second compound 3 µM) of the same molecule?
A: 104 nM

Q: And the viability, T/C (second compound 0.03 µM, first compound 0.00949 µM)?
A: 89.3%

Q: What about the viability, T/C (second compound 0.03 µM, first compound 0.03 µM) of the same molecule?
A: 86.2%

Q: And the viability, T/C (second compound 0.03 µM, first compound 0.0949 µM)?
A: 68.7%

Q: And the viability, T/C (second compound 0.03 µM, first compound 0.3 µM)?
A: 41.5%

Q: And the viability, T/C (second compound 0.03 µM, first compound 0.949 µM)?
A: 33.3%

Q: And the viability, T/C (second compound 0.03 µM, first compound 3 µM)?
A: 29.6%

Q: And the viability, T/C (second compound 0.0949 µM, first compound 0.00949 µM)?
A: 92.5%

Q: And the viability, T/C (second compound 0.0949 µM, first compound 0.03 µM)?
A: 71.7%

Q: What about the viability, T/C (second compound 0.0949 µM, first compound 0.0949 µM) of the same molecule?
A: 65.2%

Q: And the viability, T/C (second compound 0.0949 µM, first compound 0.3 µM)?
A: 35.3%

Q: What about the viability, T/C (second compound 0.0949 µM, first compound 0.949 µM) of the same molecule?
A: 30.2%

Q: What about the viability, T/C (second compound 0.0949 µM, first compound 3 µM) of the same molecule?
A: 29.2%

Q: And the viability, T/C (second compound 0.3 µM, first compound 0.00949 µM)?
A: 87.7%

Q: And the viability, T/C (second compound 0.3 µM, first compound 0.03 µM)?
A: 79.8%

Q: And the viability, T/C (second compound 0.3 µM, first compound 0.0949 µM)?
A: 59%

Q: And the viability, T/C (second compound 0.3 µM, first compound 0.3 µM)?
A: 42.6%

Q: What about the viability, T/C (second compound 0.3 µM, first compound 0.949 µM) of the same molecule?
A: 29.2%

Q: And the viability, T/C (second compound 0.3 µM, first compound 3 µM)?
A: 26.8%

Q: What about the viability, T/C (second compound 0.949 µM, first compound 0.00949 µM) of the same molecule?
A: 86.7%

Q: What about the viability, T/C (second compound 0.949 µM, first compound 0.03 µM) of the same molecule?
A: 68.5%

Q: And the viability, T/C (second compound 0.949 µM, first compound 0.0949 µM)?
A: 55.9%

Q: And the viability, T/C (second compound 0.949 µM, first compound 0.3 µM)?
A: 43.1%

Q: And the viability, T/C (second compound 0.949 µM, first compound 0.949 µM)?
A: 27.6%

Q: What about the viability, T/C (second compound 0.949 µM, first compound 3 µM) of the same molecule?
A: 22.9%

Q: And the viability, T/C (second compound 3 µM, first compound 0.00949 µM)?
A: 75.2%

Q: What about the viability, T/C (second compound 3 µM, first compound 0.03 µM) of the same molecule?
A: 69.9%

Q: What about the viability, T/C (second compound 3 µM, first compound 0.0949 µM) of the same molecule?
A: 50.1%

Q: And the viability, T/C (second compound 3 µM, first compound 0.3 µM)?
A: 34%

Q: What about the viability, T/C (second compound 3 µM, first compound 0.949 µM) of the same molecule?
A: 28.8%

Q: And the viability, T/C (second compound 3 µM, first compound 3 µM)?
A: 21.6%
